Here are results for one compound from US12213984B2, “Immunoregulatory agent” (KYUSHU UNIVERSITY, NATIONAL UNIVERSITY CORPORATION, priority 2015, dated 2025).

The target of assay [1] is T1, DOCK2DHR-2 (lobe B and lobe C of the DHR-2 domain of DOCK2) (Homo sapiens, UniProt Q92608).
T1 construct: polypeptide fragments corresponding to a DHR-2 domain including the lobe B and the lobe C of DOCK2; Histidine-SUMO (N); made in house; host or cells: E. coli Arctic express DE3 (pET28a); Rac in E. coli BL21 DE3 (pGEX-6P-1)
T1 sequence (Q92608 1196-1622): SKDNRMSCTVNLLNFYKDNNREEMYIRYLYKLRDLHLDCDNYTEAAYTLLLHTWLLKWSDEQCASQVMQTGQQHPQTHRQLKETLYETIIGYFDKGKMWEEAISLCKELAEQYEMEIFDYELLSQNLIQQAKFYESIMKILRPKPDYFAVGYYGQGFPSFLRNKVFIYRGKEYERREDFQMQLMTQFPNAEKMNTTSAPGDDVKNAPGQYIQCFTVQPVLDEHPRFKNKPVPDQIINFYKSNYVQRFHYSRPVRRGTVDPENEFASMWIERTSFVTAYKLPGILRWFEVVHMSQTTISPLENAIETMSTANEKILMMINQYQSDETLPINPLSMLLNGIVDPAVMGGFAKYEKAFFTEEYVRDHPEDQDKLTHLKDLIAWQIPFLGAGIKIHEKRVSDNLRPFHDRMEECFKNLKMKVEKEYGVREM
The assay can be described thus: in-vitro GEF assay, Rac activation by DOCK2 DHR-2 domain with various steroid compounds (Experimental Example 2). The assay is classed as biochemical. To be noted: IC50 against the Rac activation by DOCK2DHR-2, Experimental Example 2, Table 1. Here is the method: An examination was performed using various steroid compounds to test their effects on the Rac activation induced by proteins composed of the lobe B and the lobe C of the DHR-2 domain of DOCK2.
As the steroid compounds, cholesterol 3-sulfate (hereinafter, referred to as “C3S” in some cases), cholesterol, cholesterol 3-acetate (hereinafter, referred to as “C3A” in some cases), pregnenolone 3-sulfate (hereinafter, referred to as “PREG3S” in some cases), dehydroepiandrosterone (hereinafter, referred to as “DHEA” in some cases), dehydroepiandrosterone 3-sulfate (hereinafter, referred to as “DHEA3S” in some cases), estrone 3-sulfate (hereinafter, referred to as “Estrone3S” in some cases), estriol 3-sulfate (hereinafter, referred to as “Estriol3S” in some cases), and estradiol 3-sulfate (hereinafter, referred to as “Estradiol3S” in some cases) were used.
More specifically, a DOCK2-DHR-2 domain protein prepared by the same method as described above was incubated for 20 minutes at room temperature in the presence of various steroid compounds at a predetermined concentration dissolved in DMSO or in the presence of DMSO alone (control) under the shielded condition from light, thereby preparing a pretreated substance of GEF. The concentration of DMSO was adjusted such that it became 3% (1% in the final reaction solution) in all samples. Then, by in-vitro GEF assay in which Rac and Bodipy-FL-GTP prepared by the same method as described above were used, Rac activation by the DHR-2 domain was measured.

Assay [2] deals with neutrophils isolated from the mouse bone marrow. The assay can be described thus: neutrophil migration assay 1 (EZ-TAXIScan, fMLP gradient, pretreated cells). The assay is classed as cell-based. Conditions: pretreated 1 hour, fMLP gradient 0 to 10 μM. Here is the method: The influence of cholesterol 3-sulfate on a migration speed of neutrophils was examined. More specifically, in the presence of cholesterol 3-sulfate at a predetermined concentration or in the presence of DMSO alone (vehicle control), neutrophils isolated from the mouse bone marrow were incubated for 1 hour at room temperature in 20 mM HEPES-NaOH (pH 7.3)-0.1% BSA-containing RPMI-1640 (Taxiscan medium). The concentration of DMSO was adjusted such that the final concentration of DMSO became 0.2% in all samples.
Then, the pre-treated cells were loaded on wells of one side of the chamber of EZ-TAXIScan (Effector Cell Institute, Inc). After 1 μL of fMLP in a Taxiscan medium was added at a concentration of 10 μM to wells of the other side 260 μm distant from the above wells, neutrophils were allowed to migrate in the presence of a fMLP gradient (0 to 10 μM). Phase-contrast micrographs were obtained for 20 minutes at an interval of 30 seconds, and the trace and speed of neutrophils were analyzed by using manual tracking of the Image J program and a chemotaxis and migration tool.

The test system of assay [3] is neutrophils derived from the mouse bone marrow. Description: neutrophil migration assay 2 (EZ-TAXIScan, compound added to the fMLP source). The assay is classed as cell-based. To be noted: 150 μM added to well with 3 μM fMLP, no pretreatment. As to the method: An examination was performed about the influence of cholesterol 3-sulfate on the migration speed of neutrophils when the cells and the chemical migration factor (fMLP) are added to the same well without pretreating the cells. […] Phase-contrast micrographs were obtained for 40 minutes at an interval of 30 seconds and analyzed by the same method as described above. (a) to (c) of FIG. 12 are graphs and photographs showing the experiment results.

In assay [4] the test system is inflammatory cells infiltrating into the anterior chamber of eye. The assay can be described thus: UV-induced photokeratitis in Sult2B1b gene knockout mice, eye drops. The assay is classed as in vivo, mouse. Conditions: eye drops before and after UV irradiation. From the text:
As a result of analyzing UV-induced photokeratitis in Sult2B1b gene heterozygous mice (+/−) and Sult2B1b gene knockout mice (−/−), atrophy of the corneal epithelial layer was comparably observed in both mice. Therefore, the eyeball section of each of the mice was subjected to hematoxylin-eosin (HE) staining and observed using an optical microscope. Thereafter, cholesterol 3-sulfate was applied to the eyes of the Sult2B1b gene knockout mouse (−/−) before and after UV irradiation, and the total number of inflammatory cells infiltrating the anterior chamber of eye was counted. As a control, mouse for whom only a vehicle was applied to its eyes was used.

Assay [5] relates to inflammatory cells infiltrating into the conjunctiva. The assay can be described thus: ragweed pollen-induced conjunctivitis model in Sult2B1b gene knockout mice, application to the eyes. The assay is classed as in vivo, mouse. To be noted: applied into the eyes before and after topical challenge.
Procedure: An examination was performed on conjunctivitis models induced by sensitizing Sult2B1b gene hetero-type mice (+/−) and Sult2B1b gene knockout mice (−/−) with ragweed pollen and topically challenged with the same antigen at 10 and 12 days later. The eyeball section of each category of the mice was subjected to hematoxylin-eosin (HE) staining and observed using an optical microscope. Thereafter, the Sult2B1b gene knockout mice (−/−) were exposed to ragweed pollen, and cholesterol 3-sulfate was applied into the eyes of the mice before and after the topical challenge with ragweed pollen. […] As a control, a mouse for whom only a vehicle was applied into its eyes was used.

For the compound `CC(C)CCC[C@@H](C)[C@H]1CC[C@H]2[C@@H]3CC=C4C[C@@H](OS(=O)(=O)O)CC[C@]4(C)[C@H]3CC[C@]12C` [C3S, cholesterol 3-sulfate], in assay [1], the IC50 was 2000 nM. Besides, in assay [2], the “migration of neutrophils (migration speed) in response to fMLP” value is “markedly inhibited”. For the same compound, in assay [3], the “migration of neutrophils towards fMLP source containing the compound” value is given as “rapidly stop”. The “UV irradiation-induced infiltration of inflammatory cells into the anterior chamber of eye” value in assay [4] is given as “inhibited”. Further, the “infiltration of inflammatory cells into the conjunctiva in response to ragweed pollen” value in assay [5] was “further inhibited”.
